In patent US20260317344A1, “EGFR INHIBITORS FOR TREATING DISEASE” (BLOSSOMHILL THERAPEUTICS, INC., priority 2023, published 2026):

Tests used:
[1] = test system: BaF3 cells with engineered EGFR d746-750/T790M; experiment: 3-Day CellTiter Glo (CTG) cell proliferation assay, BaF3 EGFR d746-750/T790M; format: cell-based; conditions: Mus musculus; BaF3 EGFR d746-750/T790M cells, 3-day CTG proliferation, 72 hours
Procedure, shortened: (§1)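 Growth inhibition in transgene-bearing BaF3 lines was scored after three days of compound treatment by CellTiter-Glo 2.0 ATP luminescence, yielding IC50 values.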

EGFR (D770_N771insNPG) = EGFR (D770_N771insNPG) (Homo sapiens, UniProt P00533, INS770NPG); experiment: HotSpot radiometric kinase assay, inhibition of EGFR (D770_N771insNPG) mutant; format: biochemical; conditions: 33P ATP, room temperature, 120 m
Procedure, shortened: (§2)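 Kinase/substrate pairs in 20 mM HEPES pH 7.5, 10 mM MgCl2, 1 mM EGTA, 0.02% Brij35, 0.02 mg/ml BSA, 0.1 mM Na3VO4, 2 mM DTT, 1% DMSO, preincubated ~20 min with compound. Reaction started with ATP/33P-ATP ([…]), run 120 min at room temperature; phosphorylation read by P81 filter binding, IC50 from curve fits.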

NCI-H1975 cells = experiment: 5-Day CellTiter Glo (CTG) cell proliferation assay, NCI-H1975; format: cell-based; conditions: Homo sapiens; NCI-H1975 cells (L858R/T790M EGFR), 5-day CTG proliferation, 120 hours; read-out: H1975 IC50
Procedure, shortened: (§3)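 Luminescent ATP signal (CellTiter-Glo 2.0) after 120 hours of compound exposure gave IC50 values. PC-9 and HCC827 harbour EGFR d746-750; NCI-H1975 harbours L858R/T790M.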

[2] = target: T1, pEGFR, NCI-H1975 cells (L858R/T790M EGFR) (Homo sapiens, UniProt P00533, L858R/T790M); experiment: Cellular EGFR phosphorylation assay (LANCE Ultra TR-FRET) in NCI-H1975 cells; format: cell-based; conditions: 4 hours at 37° C., read-out: H1975 pEGFR IC50
T1 construct: pEGFR (Tyr1068) TR-FRET
Procedure, shortened: (§4)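 4 h compound treatment at 37 °C, 9-point 3-fold titration. EGF (40 ng/mL, final 10 min) in A431 only. Tyr1068 phosphorylation measured by TR-FRET and IC50 fitted.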

EGFR WT = EGFR WT (Homo sapiens, UniProt P00533); experiment: HotSpot radiometric kinase assay, inhibition of EGFR WT; format: biochemical; conditions: 33P ATP, room temperature, 120 m
Procedure: (§5) Biochemical Assays for inhibition of wild-type and mutant EGFRs
(§6) Briefly, specific kinase/substrate pairs along with required cofactors were prepared in reaction buffer; 20 mM HEPES pH 7.5, 10 mM […], 1 mM EGTA, 0.02% Brij35, 0.02 mg/ml BSA, 0.1 mM Na3VO4, 2 mM DTT, 1% DMSO. Compounds were delivered into the reaction, followed ~20 minutes later by addition of a mixture of ATP (Sigma, St. Louis MO) and ^33P ATP (Perkin Elmer, Waltham MA) to a final concentration of […]. Reactions were carried out at room temperature for 120 m, followed by spotting of the reactions onto P81 ion exchange filter paper (Whatman Inc., Piscataway, NJ). Unbound phosphate was removed by extensive washing of filters in 0.75% phosphoric acid. […] IC50 values and curve fits were obtained using Prism (GraphPad Software).

EGFR (L858R/T790M) = EGFR (L858R/T790M) (Homo sapiens, UniProt P00533, L858R/T790M); experiment: HotSpot radiometric kinase assay, inhibition of EGFR L858R/T790M mutant; format: biochemical; conditions: 33P ATP, room temperature, 120 m
Procedure: as §5, §6

EGFR (D746-750) = EGFR (D746-750) (Homo sapiens, UniProt P00533, DEL746-750); experiment: HotSpot radiometric kinase assay, inhibition of EGFR 746-750 mutant; format: biochemical; conditions: 33P ATP, room temperature, 120 m
Sequence of EGFR (D746-750) (P00533 with tags, fused parts or gaps DEL746-750): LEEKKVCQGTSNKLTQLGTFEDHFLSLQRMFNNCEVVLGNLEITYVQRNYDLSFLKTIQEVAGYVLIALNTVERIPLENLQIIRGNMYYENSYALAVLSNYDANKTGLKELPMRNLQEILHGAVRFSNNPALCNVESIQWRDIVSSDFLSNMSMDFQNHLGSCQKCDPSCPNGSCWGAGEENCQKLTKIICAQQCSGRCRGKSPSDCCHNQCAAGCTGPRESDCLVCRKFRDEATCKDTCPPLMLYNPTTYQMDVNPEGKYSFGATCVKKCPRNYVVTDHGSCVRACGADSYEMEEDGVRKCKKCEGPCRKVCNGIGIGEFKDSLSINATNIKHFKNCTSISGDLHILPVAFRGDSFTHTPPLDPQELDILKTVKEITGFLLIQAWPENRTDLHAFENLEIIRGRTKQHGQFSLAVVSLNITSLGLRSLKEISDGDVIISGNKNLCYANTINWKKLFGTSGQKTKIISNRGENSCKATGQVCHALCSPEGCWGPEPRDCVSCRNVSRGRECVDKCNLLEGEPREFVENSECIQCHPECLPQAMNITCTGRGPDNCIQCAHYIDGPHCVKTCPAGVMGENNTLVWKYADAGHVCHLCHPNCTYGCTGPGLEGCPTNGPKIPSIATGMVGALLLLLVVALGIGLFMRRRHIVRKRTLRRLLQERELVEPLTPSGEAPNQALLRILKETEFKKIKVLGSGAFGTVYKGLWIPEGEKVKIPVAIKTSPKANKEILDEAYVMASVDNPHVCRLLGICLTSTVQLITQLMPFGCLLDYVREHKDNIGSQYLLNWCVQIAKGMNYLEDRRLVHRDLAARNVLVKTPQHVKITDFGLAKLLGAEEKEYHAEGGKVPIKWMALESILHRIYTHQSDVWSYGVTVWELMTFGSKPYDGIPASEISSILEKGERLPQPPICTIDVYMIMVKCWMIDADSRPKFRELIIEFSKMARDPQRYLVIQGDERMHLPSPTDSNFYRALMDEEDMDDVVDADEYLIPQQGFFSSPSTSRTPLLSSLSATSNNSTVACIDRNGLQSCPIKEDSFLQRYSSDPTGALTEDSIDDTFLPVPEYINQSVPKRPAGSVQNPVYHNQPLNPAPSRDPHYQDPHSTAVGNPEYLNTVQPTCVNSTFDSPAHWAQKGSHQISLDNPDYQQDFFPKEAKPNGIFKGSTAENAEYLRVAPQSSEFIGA
Procedure, shortened: as §2

[3] = target: T2, pEGFR, PC-9 cells (d746-750 EGFR) (Homo sapiens, UniProt P00533, DEL746-750); experiment: Cellular EGFR phosphorylation assay (LANCE Ultra TR-FRET) in PC-9 cells; format: cell-based; conditions: 4 hours at 37° C., read-out: PC-9 pEGFR IC50
T2 construct: pEGFR (Tyr1068) TR-FRET
T2 sequence (P00533 with tags, fused parts or gaps DEL746-750): as above
Procedure, shortened: as §4

[4] = test system: BaF3 cells with engineered EGFR L858R/C797S; experiment: 3-Day CellTiter Glo (CTG) cell proliferation assay, BaF3 EGFR L858R/C797S; format: cell-based; conditions: Mus musculus, 3-day CTG proliferation, 72 hours
Procedure, shortened: as §1

EGFR (L858R/T790M/C797S) = EGFR (L858R/T790M/C797S) (Homo sapiens, UniProt P00533, C797S/L858R/T790M); experiment: HotSpot radiometric kinase assay, inhibition of EGFR L858R/T790M/C797S mutant; format: biochemical; conditions: 33P ATP, room temperature, 120 m
Sequence of EGFR (L858R/T790M/C797S) (P00533 25-1210 T790M/C797S/L858R): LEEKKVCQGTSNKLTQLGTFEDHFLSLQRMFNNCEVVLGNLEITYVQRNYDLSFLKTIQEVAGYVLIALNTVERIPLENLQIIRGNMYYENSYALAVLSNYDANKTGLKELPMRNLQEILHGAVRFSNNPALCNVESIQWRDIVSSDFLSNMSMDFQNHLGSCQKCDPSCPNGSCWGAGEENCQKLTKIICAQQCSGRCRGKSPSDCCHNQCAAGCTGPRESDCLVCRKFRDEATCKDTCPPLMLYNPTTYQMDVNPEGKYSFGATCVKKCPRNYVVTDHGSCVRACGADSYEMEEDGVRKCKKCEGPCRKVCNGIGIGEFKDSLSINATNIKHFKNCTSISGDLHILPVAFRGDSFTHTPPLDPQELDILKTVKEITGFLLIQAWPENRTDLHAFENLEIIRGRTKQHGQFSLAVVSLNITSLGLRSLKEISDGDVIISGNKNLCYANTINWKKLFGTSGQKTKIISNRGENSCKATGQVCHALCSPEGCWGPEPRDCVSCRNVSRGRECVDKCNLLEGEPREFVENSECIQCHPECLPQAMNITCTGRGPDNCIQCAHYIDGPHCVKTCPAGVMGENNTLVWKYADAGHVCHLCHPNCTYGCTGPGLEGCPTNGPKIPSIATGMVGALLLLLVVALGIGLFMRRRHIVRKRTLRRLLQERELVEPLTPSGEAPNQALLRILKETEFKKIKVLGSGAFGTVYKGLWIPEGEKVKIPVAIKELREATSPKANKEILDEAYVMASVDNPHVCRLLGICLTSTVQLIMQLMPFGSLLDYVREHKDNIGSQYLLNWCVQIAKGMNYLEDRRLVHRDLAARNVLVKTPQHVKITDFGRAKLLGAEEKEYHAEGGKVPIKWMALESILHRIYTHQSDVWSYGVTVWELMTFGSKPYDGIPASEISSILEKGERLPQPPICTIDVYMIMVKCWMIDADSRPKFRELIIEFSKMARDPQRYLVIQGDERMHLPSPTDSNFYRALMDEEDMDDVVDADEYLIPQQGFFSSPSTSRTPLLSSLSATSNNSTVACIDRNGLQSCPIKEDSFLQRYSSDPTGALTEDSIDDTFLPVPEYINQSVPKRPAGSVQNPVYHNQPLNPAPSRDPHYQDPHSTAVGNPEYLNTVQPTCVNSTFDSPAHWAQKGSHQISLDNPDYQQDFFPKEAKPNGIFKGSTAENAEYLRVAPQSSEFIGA
Procedure, shortened: as §2

HCC827 cells = experiment: 5-Day CellTiter Glo (CTG) cell proliferation assay, HCC827; format: cell-based; conditions: Homo sapiens; HCC827 cells (d746-750 EGFR), 5-day CTG proliferation, 120 hours; read-out: HCC827 IC50
Procedure, shortened: as §3

[5] = test system: BaF3 cells with engineered EGFR L858R/T790M/C797S; experiment: 3-Day CellTiter Glo (CTG) cell proliferation assay, BaF3 EGFR L858R/T790M/C797S; format: cell-based; conditions: Mus musculus, 3-day CTG proliferation, 72 hours
Procedure, shortened: as §1

EGFR (L858R) = EGFR (L858R) (Homo sapiens, UniProt P00533, L858R); experiment: HotSpot radiometric kinase assay, inhibition of EGFR L858R mutant; format: biochemical; conditions: 33P ATP, room temperature, 120 m
Sequence of EGFR (L858R) (P00533 25-1210 L858R): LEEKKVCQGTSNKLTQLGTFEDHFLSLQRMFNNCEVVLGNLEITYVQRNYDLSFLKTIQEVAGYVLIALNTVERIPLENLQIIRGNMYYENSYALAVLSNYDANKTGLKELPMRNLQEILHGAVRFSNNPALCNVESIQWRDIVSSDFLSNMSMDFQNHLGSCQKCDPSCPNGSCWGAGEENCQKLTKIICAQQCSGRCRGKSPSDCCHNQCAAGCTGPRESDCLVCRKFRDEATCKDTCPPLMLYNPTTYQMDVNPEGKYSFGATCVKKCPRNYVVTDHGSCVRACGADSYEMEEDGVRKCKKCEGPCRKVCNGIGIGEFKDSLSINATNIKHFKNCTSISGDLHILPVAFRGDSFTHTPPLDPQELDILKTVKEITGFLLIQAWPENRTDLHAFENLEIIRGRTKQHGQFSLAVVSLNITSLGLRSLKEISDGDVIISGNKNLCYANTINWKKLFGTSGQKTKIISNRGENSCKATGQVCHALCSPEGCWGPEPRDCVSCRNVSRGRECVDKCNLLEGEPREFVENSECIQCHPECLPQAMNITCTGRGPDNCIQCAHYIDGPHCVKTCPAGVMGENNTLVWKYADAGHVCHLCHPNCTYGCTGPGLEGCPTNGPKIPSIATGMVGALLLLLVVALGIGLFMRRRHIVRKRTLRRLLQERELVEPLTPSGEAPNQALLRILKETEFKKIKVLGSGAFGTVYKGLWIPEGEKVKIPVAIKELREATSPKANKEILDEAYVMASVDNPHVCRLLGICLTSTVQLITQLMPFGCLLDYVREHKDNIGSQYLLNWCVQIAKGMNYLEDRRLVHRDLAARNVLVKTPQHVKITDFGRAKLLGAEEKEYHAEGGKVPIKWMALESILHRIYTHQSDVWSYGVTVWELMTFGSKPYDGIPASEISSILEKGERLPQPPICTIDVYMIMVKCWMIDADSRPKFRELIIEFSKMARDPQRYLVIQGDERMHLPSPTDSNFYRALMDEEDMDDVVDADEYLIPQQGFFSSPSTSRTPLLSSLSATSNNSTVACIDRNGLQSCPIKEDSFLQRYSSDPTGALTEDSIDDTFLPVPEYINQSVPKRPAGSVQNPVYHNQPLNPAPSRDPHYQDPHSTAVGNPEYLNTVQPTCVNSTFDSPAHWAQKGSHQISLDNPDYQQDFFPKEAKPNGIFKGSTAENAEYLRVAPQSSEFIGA
Procedure: as §5, §6

EGFR (D746-750/C797S) = EGFR (D746-750/C797S) (Homo sapiens, UniProt P00533, C797S/DEL746-750); experiment: HotSpot radiometric kinase assay, inhibition of EGFR 746-750/C797S mutant; format: biochemical; conditions: 33P ATP, room temperature, 120 m
Procedure, shortened: as §2

[6] = target: T3, pEGFR, A431 cells (wildtype EGFR) (Homo sapiens, UniProt P00533); experiment: Cellular EGFR phosphorylation assay (LANCE Ultra TR-FRET) in A431 cells; format: cell-based; conditions: 4 hours at 37° C., 40 ng/mL EGF for the final 10 minutes, read-out: A431 pEGFR IC50
T3 construct: pEGFR (Tyr1068) TR-FRET
Procedure, shortened: as §4

PC-9 cells = experiment: 5-Day CellTiter Glo (CTG) cell proliferation assay, PC-9; format: cell-based; conditions: Homo sapiens; PC-9 cells (d746-750 EGFR), 5-day CTG proliferation, 120 hours; read-out: PC-9 IC50
Procedure, shortened: as §3

Row | Structure (SMILES) | IC50 [1] [nM] | IC50 (EGFR (D770_N771insNPG)) [nM] | IC50 (NCI-H1975 cells) [nM] | IC50 [2] [nM] | IC50 (EGFR WT) [nM] | IC50 (EGFR (L858R/T790M)) [nM] | IC50 (EGFR (D746-750)) [nM] | IC50 [3] [nM] | IC50 [4] [nM] | IC50 (EGFR (L858R/T790M/C797S)) [nM] | IC50 (HCC827 cells) [nM] | IC50 [5] [nM] | IC50 (EGFR (L858R)) [nM] | IC50 (EGFR (D746-750/C797S)) [nM] | IC50 [6] [nM] | IC50 (PC-9 cells) [nM]
1 | CCN1Cc2c(c(C)nn2CCO)/C=C/c2n[nH]c3cnc(cc23)-c2c(C)nn(C)c2O[C@@H](C)C1 [Ex. 13, 2-[(10S,17E)-12-ethyl-6,8,10,16-tetramethyl-2,8,10,11,12,13-hexahydro-14H-5,3-(azenometheno)tripyrazolo[3,4-f:3′,4′-j:4″,3″-n][1,4]oxazacyclopentadecin-14-yl]ethan-1-ol] | 1.46 | 0.07 | 4.27 | 2.09 | 0.05 | 0.2 | 0.41 | 1 | 0.1 | 0.19 | 0.26 | 1.05 | 0.16 | 0.16 | 12 | 0.38
2 | CCN1Cc2c(c(C)nn2CCO)/C=C/c2n[nH]c3cnc(cc23)-c2c(C)nn(C)c2O[C@H](C)C1 [Ex. 14, 2-[(10R,17E)-12-ethyl-6,8,10,16-tetramethyl-2,8,10,11,12,13-hexahydro-14H-5,3-(azenometheno)tripyrazolo[3,4-f:3′,4′-j:4″,3″-n][1,4]oxazacyclopentadecin-14-yl]ethan-1-ol] | 22.3 | 0.15 | 110 | 7.52 | 0.08 | 0.23 | 0.47 | 11.8 | 1.24 | 0.22 | 2.87 | 5.24 | 0.25 | 0.2 | 44.7 | 54.5
3 | CCOc1nn(CCO)c2c1/C=C/c1n[nH]c3cnc(cc13)-c1c(C)nn(C)c1O[C@@H](C)CN(CC)C2 [Ex. 15, 2-[(10S,17E)-16-ethoxy-12-ethyl-6,8,10-trimethyl-2,8,10,11,12,13-hexahydro-14H-5,3-(azenometheno)tripyrazolo[3,4-f:3′,4′-j:4″,3″-n][1,4]oxazacyclopentadecin-14-yl]ethan-1-ol] | 0.58 | 0.22 | 0.76 | 1.86 | 0.12 | 0.37 | 0.6 | 1.05 | 0.06 | 0.37 | 0.18 | 0.79 | 0.27 | 0.24 | 7.48 | 0.33
4 | CCOc1nn(CCO)c2c1/C=C/c1n[nH]c3cnc(cc13)-c1c(C)nn(C)c1OC[C@H](C)N(CC)C2 [Ex. 16, 2-[(11S,17E)-16-ethoxy-12-ethyl-6,8,11-trimethyl-2,8,10,11,12,13-hexahydro-14H-5,3-(azenometheno)tripyrazolo[3,4-f:3′,4′-j:4″,3″-n][1,4]oxazacyclopentadecin-14-yl]ethan-1-ol] | 0.66 | 0.68 | 27.1 | 5.22 | 0.45 | 1.38 | 0.66 | 4.37 | 0.34 | 4.57 | 0.88 | 1.93 | 0.62 | 1.43 | 19.8 | 5.56
5 | CCOc1nn(CCO)c2c1/C=C/c1n[nH]c3cnc(cc13)-c1c(C)nn(C)c1O[C@H](C)CN(CC)C2 [Ex. 17, 2-[(10R,17E)-16-ethoxy-12-ethyl-6,8,10-trimethyl-2,8,10,11,12,13-hexahydro-14H-5,3-(azenometheno)tripyrazolo[3,4-f:3′,4′-j:4″,3″-n][1,4]oxazacyclopentadecin-14-yl]ethan-1-ol] | 0.34 | 0.59 | 17.5 | 2.63 | 0.36 | 0.97 | 0.31 | 1.85 | 0.22 | 2.37 | 0.37 | 1.14 | 0.52 | 1 | 14.3 | 2.01
6 | CCOc1nn(CCO)c2c1/C=C/c1n[nH]c3cnc(cc13)-c1c(C)nn(C)c1OC[C@@H](C)N(CC)C2 [Ex. 18, 2-[(11R,17E)-16-ethoxy-12-ethyl-6,8,11-trimethyl-2,8,10,11,12,13-hexahydro-14H-5,3-(azenometheno)tripyrazolo[3,4-f:3′,4′-j:4″,3″-n][1,4]oxazacyclopentadecin-14-yl]ethan-1-ol] | 1.44 | 0.59 | 19.5 | 8.91 | 0.43 | 1.11 | 0.45 | 3.24 | 0.29 | 4.08 | 0.53 | 2.46 | 0.51 | 1.32 | 15.6 | 2.14
